# In patent US20020133837A1, “Transgenic animals at a nuclear hormone receptor locus” (priority 2001, published 2002):
# “Also recorded” adds a separate entry of the source.
# System: inbred transgenic mice with mutant thyroid hormone receptor beta (TRβPV) and wild-type mice
# Assay: Behavioral analysis of locomotor activity (light beam breaks) after methylphenidate
# Type: in vivo, mouse
# Conditions: methylphenidate 7.5 mg/kg or 30.0 mg/kg on day 3, activity assessed for 3 hours following injection
# Protocol: Animals were kept on a light-dark schedule of 12 hours with lights on at 6:00 a.m. Behavioral tests were started between 4:30 p.m. and 5:30 p.m. Eleven-to sixteen-week-old mice were assessed in a 15×30 cm cage with four light beams crossing the cage on the long axis. Locomotor activity was measured by computer-automated counting of the number of times a light beam was blocked (San Diego Instruments, San Diego, Calif.). Activity was measured for 3 hours upon introduction of each animal to the chamber on day 1 to measure baseline/novel behavior levels (see FIG. 3), and the animals remained in the chambers for the length of the experiment (3 days) to permit drug response in an acclimated environment. On day 2, animals were injected with saline (i.p),and on day 3 with methylphenidate (7.5 mg/kg or 30.0 mg/kg). Food and water were provided ad libitum, and activity was assessed for 3 hours following injection. Activity scores were subjected to analysis of variance (ANOVA) analysis to compare the groups by genotype and injection status.
smiles,measurement,setting,value
COC(=O)C(c1ccccc1)C1CCCCN1 (centres unmarked) [methylphenidate],level of locomotor activity in response to methylphenidate,heterozygous and homozygous TRβ PV mutant inbred mice,decreased levels of activity; also recorded: responded to treatment; also recorded: reduced their level of activity; also recorded: level of activity in these mice was reduced
same,level of locomotor activity in response to methylphenidate,wild-type mice,increase in activity
